Strand notation (5' to 3'): a small letter for the sugar, then the base; units joined by * are phosphorothioate-linked, units joined directly phosphodiester-linked; [ ] holds rarer units or linkages, { } end groups; capitals alone tell only the bases. e = 2'-O-(2-methoxyethyl) (MOE); [5mC] = 5-methylcytosine; d = 2'-deoxy (DNA)
Test system: human PKK mRNA
Assay: Antisense inhibition of human PKK mRNA in HepaRG cells, 5,000 nM (Example 2)
Format: cell-based
Settings: HepaRG cells, 5,000 nM antisense oligonucleotide, human PKK mRNA; Table 18
In short: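 HepaRG cells, 20,000 per well, were electroporated with 5,000 nM MOE gapmer (phosphorothioate, 5-methylcytosine) and incubated about 24 hours. PKK mRNA was quantified by qRT-PCR with primer probe set RTS3454, normalized to RIBOGREEN total RNA, and expressed as percent inhibition versus untreated controls.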

Compared with “548717 (DNA eA*e[5mC]*eT*dA*dG*dT*dT*dT*d[5mC]*d[5mC]*dT*dA*dT*eA*eA*e[5mC]*eT; antisense) [compound 548717]”, “548711 (DNA e[5mC]*eT*eG*dT*dA*d[5mC]*dT*dA*dG*dT*dT*dT*d[5mC]*e[5mC]*eT*eA; antisense) [compound 548711]” is higher in “% inhibition” value: 0% for the first, 21% for the second.

Same assay, conditions: HepaRG cells, 5,000 nM antisense oligonucleotide; 5-10-5 gapmers; Table 16

Compared with “546931 (eG*e[5mC]*e[5mC]*e[5mC]*e[5mC]*d[5mC]*dG*dG*dA*dG*d[5mC]*dA*d[5mC]*d[5mC]*dT*eT*e[5mC]*eA*e[5mC]*eT; antisense) [compound 546931]”, “547720 (eG*eA*eA*eA*eG*dA*d[5mC]*dG*dG*d[5mC]*d[5mC]*dA*dA*dT*dG*eG*eG*eA*eA*eA; antisense) [compound 547720]” is lower in “% inhibition” value: 58% for the first, 8% for the second.

Same assay, conditions: HepaRG cells, 5,000 nM antisense oligonucleotide; 5-10-5 gapmers; Table 17

First: 547736 (eT*eG*eG*eT*eA*dG*dG*dA*dT*dT*dG*dG*dT*dG*dG*eT*eG*eG*eG*eA; antisense) [compound 547736]
Second: 547766 (antisense eG*e[5mC]*e[5mC]*eT*e[5mC]*dT*d[5mC]*dA*dG*dA*d[5mC]*dG*dG*d[5mC]*dA*e[5mC]*eA*eG*eA*e[5mC]) [compound 547766]
The “% inhibition” value of the first is higher: 54% for the first, 0% for the second.

Going from “547746 (eG*eT*eT*eG*eG*dT*dG*dG*d[5mC]*dG*dG*dG*dA*dT*d[5mC]*eG*eG*eT*eG*eG; antisense) [compound 547746]” to “547756 (antisense eG*eG*eG*eT*e[5mC]*dT*dT*dG*d[5mC]*dT*d[5mC]*d[5mC]*dA*d[5mC]*d[5mC]*e[5mC]*eA*e[5mC]*eA*eT) [compound 547756]”, the “% inhibition” value rises from 0% to 49%.

With “547760 (antisense eA*eT*e[5mC]*eA*eT*dG*d[5mC]*dT*dT*dA*d[5mC]*dT*dG*d[5mC]*dA*eA*eG*eT*eG*eA) [compound 547760]” the “% inhibition” value was 19%.

Same assay, conditions: HepaRG cells, electroporation with 5,000 nM antisense oligonucleotide, approximately 24 hours, PKK mRNA by RT-PCR (RTS3454), relative to untreated control cells; Table 5 experiment

In the case of “546173 (antisense e[5mC]*eG*eA*eT*eG*dT*dA*d[5mC]*dT*dT*dT*dT*dG*dG*d[5mC]*eA*eG*eG*eG*eT) [compound 546173]”, the “% inhibition” value is reported as 84%.

Same assay, conditions: HepaRG cells, electroporation with 5,000 nM antisense oligonucleotide, approximately 24 hours, PKK mRNA by RT-PCR (RTS3454), relative to untreated control cells; Table 6 experiment

Compared with “546213 (antisense e[5mC]*e[5mC]*e[5mC]*eT*eG*dG*d[5mC]*dA*dA*d[5mC]*dA*dT*d[5mC]*d[5mC]*dA*e[5mC]*eA*eT*e[5mC]*eT) [compound 546213]”, “547355 (e[5mC]*eA*eA*eT*eT*dG*dT*dT*d[5mC]*d[5mC]*dG*dG*dT*dA*d[5mC]*eT*e[5mC]*eT*eG*e[5mC]; antisense) [compound 547355]” is lower in “% inhibition” value: 82% for the first, 77% for the second.

Compared with “547325 (antisense eG*eA*e[5mC]*e[5mC]*eA*d[5mC]*dA*dT*dT*dG*d[5mC]*dT*dT*d[5mC]*dA*eA*eG*eG*eA*eA) [compound 547325]”, “547352 (antisense e[5mC]*e[5mC]*eG*eG*eT*dA*d[5mC]*dT*d[5mC]*dT*dG*d[5mC]*d[5mC]*dT*dT*eG*eT*eG*eA*eA) [compound 547352]” is higher in “% inhibition” value: 67% for the first, 94% for the second.

First: 547318 (antisense e[5mC]*e[5mC]*eA*eG*eA*dA*dA*d[5mC]*dT*dG*d[5mC]*dA*d[5mC]*d[5mC]*dT*eG*eT*eT*e[5mC]*eG) [compound 547318]
Second: 547338 (antisense eT*e[5mC]*eA*eA*e[5mC]*dT*d[5mC]*d[5mC]*dT*dT*dT*dA*dT*dA*dA*eA*eT*eG*eT*e[5mC]) [compound 547338]
The “% inhibition” value of the first is higher: 74% for the first, 71% for the second.

Going from “547342 (antisense eA*eT*eT*eA*eA*dA*dA*dT*dT*dG*dA*d[5mC]*dT*d[5mC]*d[5mC]*eT*e[5mC]*eT*e[5mC]*eA) [compound 547342]” to “547334 (antisense eA*eA*eT*eG*eT*d[5mC]*dT*d[5mC]*dG*dA*dT*dG*dG*d[5mC]*dA*eA*eG*e[5mC]*eA*e[5mC]) [compound 547334]”, the “% inhibition” value rises from 66% to 74%.

Same assay, conditions: HepaRG cells, electroporation, 5,000 nM antisense oligonucleotide, approx. 24 hours, primer probe set RTS3454, relative to untreated control cells; Table 12

First: 547549 (antisense e[5mC]*e[5mC]*e[5mC]*eA*eT*dG*d[5mC]*dA*dT*dA*d[5mC]*dT*d[5mC]*dG*d[5mC]*e[5mC]*eT*eT*eT*eG) [compound 547549]
Second: 546432 (eG*eA*e[5mC]*e[5mC]*e[5mC]*d[5mC]*dA*dA*d[5mC]*dA*dG*dA*d[5mC]*dA*dG*e[5mC]*e[5mC]*e[5mC]*eA*e[5mC]; antisense) [compound 546432]
The “% inhibition” value of the first is lower: 36% for the first, 62% for the second.

Same assay, conditions: Table 7; HepaRG cells, electroporation with 5,000 nM antisense oligonucleotide, approx. 24 hours; PKK mRNA by RT-PCR (RTS3454), relative to untreated control cells

For “547394 (eT*eT*eT*eG*e[5mC]*dA*dG*dG*dT*dT*dA*dA*dA*dA*dG*eG*e[5mC]*eT*eA*eT; antisense) [compound 547394]”, the “% inhibition” value was 29%.

Same assay, conditions: Table 8; HepaRG cells, electroporation with 5,000 nM antisense oligonucleotide, approx. 24 hours; PKK mRNA by RT-PCR (RTS3454), relative to untreated control cells

Going from “547441 (antisense eG*eG*eT*eG*eT*d[5mC]*d[5mC]*dT*dA*dT*dG*dA*dG*dT*dG*eA*e[5mC]*e[5mC]*e[5mC]*eT) [compound 547441]” to “546297 (antisense eT*eA*eT*eA*eG*dA*dT*dG*d[5mC]*dG*d[5mC]*d[5mC]*dA*dA*dA*e[5mC]*eA*eT*e[5mC]*e[5mC]) [compound 546297]”, the “% inhibition” value rises from 62% to 82%.

For “547434 (eA*eG*eA*eG*eT*dT*dT*dG*dT*dT*d[5mC]*d[5mC]*dT*d[5mC]*d[5mC]*eA*eA*e[5mC]*eA*eA; antisense) [compound 547434]”, the “% inhibition” value was 54%.

Same assay, conditions: Table 9 experiment; HepaRG cells, 20,000 cells per well, electroporation with 5,000 nM antisense oligonucleotide, approx. 24 hours; PKK mRNA by RT-PCR (RTS3454), relative to untreated control cells

Going from “547460 (antisense e[5mC]*eT*eG*eG*eA*dG*dT*dT*dT*dT*dA*dT*d[5mC]*dA*dA*eG*eG*e[5mC]*eG*eA) [compound 547460]” to “547471 (antisense e[5mC]*e[5mC]*eT*eT*eT*d[5mC]*dT*d[5mC]*d[5mC]*dT*dT*d[5mC]*dG*dA*dG*eA*eA*eG*e[5mC]*e[5mC]) [compound 547471]”, the “% inhibition” value falls from 72% to 58%.

With “547463 (antisense eT*eA*eG*eG*e[5mC]*dA*dT*dA*dT*dT*dG*dG*dT*dT*dT*eT*eT*eG*eG*eA) [compound 547463]” the “% inhibition” value was 74%.

Same assay, conditions: Table 10 experiment; HepaRG cells, 20,000 cells per well, electroporation with 5,000 nM antisense oligonucleotide, approx. 24 hours; PKK mRNA by RT-PCR (RTS3454), relative to untreated control cells

Compared with “547460 (antisense e[5mC]*eT*eG*eG*eA*dG*dT*dT*dT*dT*dA*dT*d[5mC]*dA*dA*eG*eG*e[5mC]*eG*eA) [compound 547460]”, “547471 (antisense e[5mC]*e[5mC]*eT*eT*eT*d[5mC]*dT*d[5mC]*d[5mC]*dT*dT*d[5mC]*dG*dA*dG*eA*eA*eG*e[5mC]*e[5mC]) [compound 547471]” is lower in “% inhibition” value: 75% for the first, 43% for the second.

“547463 (antisense eT*eA*eG*eG*e[5mC]*dA*dT*dA*dT*dT*dG*dG*dT*dT*dT*eT*eT*eG*eG*eA) [compound 547463]” was tested, and the “% inhibition” value was 84%.

Same assay, conditions: human PKK mRNA in HepaRG cells; 5-10-5 gapmers; Table 14

First: 547594 (eG*eT*eT*eT*e[5mC]*d[5mC]*dT*dA*dT*dA*dA*d[5mC]*dT*dA*dT*eA*eA*e[5mC]*eA*eG; antisense) [compound 547594]
Second: 546865 (eT*eA*eT*eA*eA*d[5mC]*dT*dA*dT*dA*dA*d[5mC]*dA*dA*dT*eA*eT*e[5mC]*eA*e[5mC]; antisense) [compound 546865]
The “% inhibition” value of the first is higher: 19% for the first, 0% for the second.

First: 546866 (eG*eT*eT*eT*e[5mC]*d[5mC]*dT*dA*dT*dA*dA*d[5mC]*dT*dA*dT*eA*eA*e[5mC]*eA*eA; antisense) [compound 546866]
Second: 547596 (antisense eT*eA*e[5mC]*eT*eA*dG*dT*dT*dT*d[5mC]*d[5mC]*dT*dA*dT*dA*eA*e[5mC]*eT*eA*eT) [compound 547596]
The “% inhibition” value of the first is higher: 35% for the first, 14% for the second.

Same assay, conditions: human PKK mRNA, HepaRG cells, 5,000 nM antisense oligonucleotide, Table 18

First: 548742 (DNA eA*e[5mC]*eT*eG*dT*dA*d[5mC]*dT*dA*dG*dT*dT*dT*e[5mC]*e[5mC]*eT*eA; antisense) [compound 548742]
Second: 548755 (antisense eT*eA*eT*e[5mC]*dA*d[5mC]*dT*dG*dT*dA*d[5mC]*dT*dA*dG*eT*eT*eT*e[5mC]) [compound 548755]
The “% inhibition” value of the first is higher: 50% for the first, 20% for the second.

Going from “548766 (antisense eT*eA*eT*eA*dT*d[5mC]*dA*d[5mC]*dT*dG*dT*d[5mC]*d[5mC]*eT*eA*eT*eA) [compound 548766]” to “548776 (antisense e[5mC]*e[5mC]*eT*eA*dT*dA*dA*d[5mC]*dT*dA*dT*dA*dA*e[5mC]*eA*eA*eT) [compound 548776]”, the “% inhibition” value falls from 36% to 0%.

Same assay, conditions: human PKK mRNA, HepaRG cells; 5-10-5 motif oligonucleotides targeting SEQ ID NO: 1 and 10

Compared with “547662 (eA*e[5mC]*e[5mC]*eT*eA*dT*dA*dA*d[5mC]*dT*dA*dT*dA*dA*d[5mC]*eA*eG*eT*eA*eT; antisense) [compound 547662]”, “547674 (eA*e[5mC]*eA*eA*eT*dA*dT*d[5mC]*dA*d[5mC]*dT*dG*dT*dA*d[5mC]*e[5mC]*eT*eT*eT*eA; antisense) [compound 547674]” is higher in “% inhibition” value: 0% for the first, 53% for the second.

Compared with “547661 (eT*eA*eA*e[5mC]*eT*dA*dT*dA*dA*d[5mC]*dA*dG*dT*dA*dT*e[5mC]*eA*e[5mC]*e[5mC]*eG; antisense) [compound 547661]”, “546887 (e[5mC]*e[5mC]*eT*eA*eT*dG*dT*d[5mC]*dA*d[5mC]*dT*dG*dT*dA*d[5mC]*e[5mC]*eT*eA*eT*eA; antisense) [compound 546887]” is higher in “% inhibition” value: 80% for the first, 82% for the second.

Compared with “547643 (eA*eT*e[5mC]*eA*e[5mC]*dT*dG*dT*d[5mC]*d[5mC]*dT*dA*dT*dA*dA*e[5mC]*eT*eA*eT*eA; antisense) [compound 547643]”, “547652 (eT*e[5mC]*eA*e[5mC]*eT*dG*dT*dA*d[5mC]*d[5mC]*dT*dA*dT*dA*dA*e[5mC]*eA*eG*eT*eA; antisense) [compound 547652]” is lower in “% inhibition” value: 72% for the first, 59% for the second.

“547635 (eT*eA*eT*e[5mC]*eA*d[5mC]*dT*dG*dT*dA*d[5mC]*dT*dA*dG*dT*eT*eT*eT*e[5mC]*eT; antisense) [compound 547635]” was tested, and the “% inhibition” value was 53%.

Source: patent US11840686B2, “Modulation of prekallikrein (PKK) expression” (Ionis Pharmaceuticals, Inc., priority 2013, dated 2023)
